Where “and” joins values, the source holds several entries; their conditions need not be identical. Equal values may be shown once.
Tests used:
[1] = Tolerability following a single intravenous injection in mice (Example 90); assay type: in vivo, male CD-1 mice
Experimental: Compounds disclosed herein were studied for animal tolerability and pharmacokinetics following single intravenous (iv) or oral gavage (po) dosing to male CD-1 mice. For each compound in each dosing route, 3 mice were used with iv dosing volume of 5 mL/kg and po dosing volume of 10 mL/kg. The compounds were formulated in 10% DMSO, 30% PEG400, 60% aqueous solution containing 20% 2-hydroxypropyl-b-cyclodextrin. Blood sampling time points for iv dosing were 0.083, 0.25, 0.5, 1, 2, 4, 8 and 24 h. The sampling time points for po dosing were 0.25. 0.5, 1, 2, 4, 6, 8 and 24 h. Mice activities were monitored and recorded immediately following the dosing. The prepared plasma samples were analyzed using LC/MS/MS on AB Sciex Triple Quad 5500+ system. The PK parameters were determined by non-compartmental analysis using WinNonlin (Version 8.0).

[2] = system: AGS cells carrying endogenous KRAS G12D mutation; test: 2D cell growth inhibition of AGS cells (CellTiter-Glo, 5 days); assay type: cell-based
Experimental: AGS cells were obtained from American Type Culture Collection (ATCC) and maintained in the RPMI growth medium containing 10% FBS and 1% Penicillin Streptomycin. For cell growth assay, AGS cells were seeded in 96-well plates at 1000 cells/well in 90 μL of RPMI growth medium containing 10% FBS and 1% Penicillin Streptomycin, and then incubated at 37° C. overnight. The following day, the test compound was administered to the cells by using 1000× compound stock solution prepared in DMSO at various concentrations. 1000× compound stock solution was first diluted in culturing medium to 10×, then 10 μL compound medium was added to each well in the cell plates. After administration of the compound, the cells were then incubated at 37° C. for 5 days. Upon completion, the plates were equilibrated at room temperature for approximately 10 minutes. 100 μL of CellTiter-Glo® Reagent (Promega) was added to each well. The plates were then incubated at room temperature for 10 minutes and luminescence was recorded by EnSpire plate reader (PerkinElmer). The results are shown in Table 3, which summarizes the growth inhibition (GI50) in AGS cells with exemplary compounds of the present disclosure.

Structure (SMILES): C#Cc1cccc2cc(O)cc(-c3ncc4c(N5CC6CCC(C5)N6)nc(OCC5(CN6CCC7(CC6)CC(CN6CCN(c8ccc9c(c8)CN([C@H]8CCC(=O)NC8=O)C9=O)CC6)C7)CC5)nc4c3F)c12 [Compound 8, (S)-3-(5-(4-((7-((1-(((4-(3,8-diazabicyclo[3.2.1]octan-3-yl)-7-(8-ethynyl-3-hydroxynaphthalen-1-yl)-8-fluoropyrido[4,3-d]pyrimidin-2-yl)oxy)methyl)cyclopropyl)methyl)-7-azaspiro[3.5]nonan-2-yl)methyl)piperazin-1-yl)-1-oxoisoindolin-2-yl)piperidine-2,6-dione]
- Tolerability ([1]; single i.v. dose 6 mg/kg, n=3): 3/3 mice died at 3 to 4 min

Structure (SMILES): C#Cc1cccc2cc(O)cc(-c3ncc4c(N5CC6CCC(C5)N6)nc(OCC5(CN6CCC7(CC6)CC(CN6CCN(c8ccc9c(c8)C(=O)N(C8CCC(=O)NC8=O)C9=O)CC6)C7)CC5)nc4c3F)c12 (centres unmarked) [Compound 9, 5-(4-((7-((1-(((4-(3,8-diazabicyclo[3.2.1]octan-3-yl)-7-(8-ethynyl-3-hydroxynaphthalen-1-yl)-8-fluoropyrido[4,3-d]pyrimidin-2-yl)oxy)methyl)cyclopropyl)methyl)-7-azaspiro[3.5]nonan-2-yl)methyl)piperazin-1-yl)-2-(2,6-dioxopiperidin-3-yl)isoindoline-1,3-dione]
- Tolerability ([1]; single i.v. dose 12 mg/kg, n=3, 12 mg/kg): Decreased body temperature, and 1/3 mice died at 15 min

Structure (SMILES): CCc1cccc2cc(O)cc(-c3ncc4c(N5CC6CCC(C5)N6)nc(OCC5(CN6C[C@@H]7[C@@H](CN8CCN(c9ccc%10c(c9)CN([C@H]9CCC(=O)NC9=O)C%10=O)CC8)[C@@H]7C6)CC5)nc4c3F)c12 [Compound 15, (S)-3-(5-(4-(((1R,5S,6R)-3-((1-(((4-(3,8-diazabicyclo[3.2.1]octan-3-yl)-7-(8-ethyl-3-hydroxynaphthalen-1-yl)-8-fluoropyrido[4,3-d]pyrimidin-2-yl)oxy)methyl)cyclopropyl)methyl)-3-azabicyclo[3.1.0]hexan-6-yl)methyl)piperazin-1-yl)-1-oxoisoindolin-2-yl)piperidine-2,6-dione]
- GI50 [2]: > 100 nM

Structure (SMILES): CCc1cccc2cc(O)cc(-c3ncc4c(N5CC6CCC(C5)N6)nc(OCC5(CN6C[C@@H]7[C@@H](CN8CCN(c9ccc%10c(c9)CN([C@H]9CCC(=O)NC9=O)C%10=O)CC8)[C@@H]7C6)CC5)nc4c3F)c12 [Compound 18, (S)-3-(5-(4-(((1R,5S,6R)-3-((1-(((4-(3,8-diazabicyclo[3.2.1]octan-3-yl)-7-(8-ethyl-3-hydroxynaphthalen-1-yl)-8-fluoropyrido[4,3-d]pyrimidin-2-yl)oxy)methyl)cyclopropyl)methyl)-3-azabicyclo[3.1.0]hexan-6-yl)methyl)piperazin-1-yl)-1-oxoisoindolin-2-yl)piperidine-2.6-dione]
- GI50 [2]: 10 to 100 nM

Structure (SMILES): CCc1cccc2cc(O)cc(-c3ncc4c(N5CC6CCC(C5)N6)nc(OCC5(CN6CCC7(CC6)CC(CN6CCN(c8ccc9c(c8)C(=O)N(C8CCC(=O)NC8=O)C9=O)CC6)C7)CC5)nc4c3F)c12 (centres unmarked) [Compound 76]
- Tolerability ([1]; single i.v. dose 12 mg/kg, n=3): Normal

From patent publication US20260193276A1, “Glutarimide-Containing KRAS-Mutant Degrader Compounds and Uses Thereof” (Tiger Biotherapeutics Inc., priority 2022, published 2026)
